Reference: US20240400577A1, “MODULATORS OF PROTEIN KINASES” (VIBLIOME THERAPEUTICS, LLC, priority 2021, published 2024)

What was measured:
Assay in all cases: Kinase panel enzymatic inhibition assay (Nanosyn)
Type in all cases: biochemical
PLK4 = molecular target: T1, PLK4 (Homo sapiens, UniProt O00444); conditions: ATP at Km; 30-minute pre-incubation; read-out: kinase inhibition in terms of IC50, PLK4
T1 construct: Nanosyn (contract laboratory that ran the panel)
T1 sequence (O00444 1-970): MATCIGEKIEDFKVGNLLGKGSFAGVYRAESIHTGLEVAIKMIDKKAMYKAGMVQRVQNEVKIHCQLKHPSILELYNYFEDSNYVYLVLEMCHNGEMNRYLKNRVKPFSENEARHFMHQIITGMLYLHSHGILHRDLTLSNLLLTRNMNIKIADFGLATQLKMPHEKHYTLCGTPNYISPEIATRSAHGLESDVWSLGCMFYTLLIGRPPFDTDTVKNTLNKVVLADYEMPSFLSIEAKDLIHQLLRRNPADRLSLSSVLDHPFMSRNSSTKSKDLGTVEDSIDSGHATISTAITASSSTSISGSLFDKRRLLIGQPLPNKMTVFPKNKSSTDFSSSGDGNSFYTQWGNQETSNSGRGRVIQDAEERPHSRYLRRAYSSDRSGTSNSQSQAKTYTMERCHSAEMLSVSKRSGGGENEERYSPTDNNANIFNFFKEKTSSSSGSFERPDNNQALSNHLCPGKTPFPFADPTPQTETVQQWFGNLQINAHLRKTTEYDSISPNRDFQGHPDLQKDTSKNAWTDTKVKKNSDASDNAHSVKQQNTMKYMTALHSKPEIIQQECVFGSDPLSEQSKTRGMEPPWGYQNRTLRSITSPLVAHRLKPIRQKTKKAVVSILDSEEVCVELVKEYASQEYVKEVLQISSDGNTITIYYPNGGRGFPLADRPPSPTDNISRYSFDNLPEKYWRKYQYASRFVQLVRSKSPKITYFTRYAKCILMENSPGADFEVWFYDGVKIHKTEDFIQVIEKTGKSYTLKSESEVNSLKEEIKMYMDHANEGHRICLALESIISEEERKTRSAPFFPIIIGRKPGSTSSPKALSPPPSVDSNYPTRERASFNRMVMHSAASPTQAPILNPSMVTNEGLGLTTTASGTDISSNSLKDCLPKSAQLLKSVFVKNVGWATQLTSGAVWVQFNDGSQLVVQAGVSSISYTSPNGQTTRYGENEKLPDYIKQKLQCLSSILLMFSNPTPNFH
Method: (§1) The disclosed compounds were tested for activity against a panel of at least 300 kinases. Kinase panel screening was conducted by Nanosyn (Santa Clara, CA 95051) using an enzymatic inhibition assay accepted as valid by those skilled in the art (e.g., the Caliper LabChip® mobility shift assay, an ADP detection assay, or time-resolved fluorescence detection technology. Compounds were screened at a concentration of 5 μM using an ATP concentration at the Km for each of the respective kinases and a 30-minute pre-incubation time-point.
(§2) In Table 1 and 2, kinase inhibition is classified by: A=95% or greater, B=90%-94%, C=80%-89%, and D=79% and less with a compound concentration of 5 JIM. In Table 3 and 4, kinase inhibition is reported in terms of IC50 values corresponding to A=less than 500 nm, B=500 nm to less than 1 μM, C=1 μM to less than 10 μM, and D=10 μM or greater using a compound concentration of 5 μM.

RIPK1 = molecular target: T2, RIPK1 (Homo sapiens, UniProt Q13546); conditions: ATP at Km; 30-minute pre-incubation; read-out: kinase inhibition in terms of IC50, RIPK1
T2 construct: purchased Nanosyn
T2 sequence (Q13546 1-671): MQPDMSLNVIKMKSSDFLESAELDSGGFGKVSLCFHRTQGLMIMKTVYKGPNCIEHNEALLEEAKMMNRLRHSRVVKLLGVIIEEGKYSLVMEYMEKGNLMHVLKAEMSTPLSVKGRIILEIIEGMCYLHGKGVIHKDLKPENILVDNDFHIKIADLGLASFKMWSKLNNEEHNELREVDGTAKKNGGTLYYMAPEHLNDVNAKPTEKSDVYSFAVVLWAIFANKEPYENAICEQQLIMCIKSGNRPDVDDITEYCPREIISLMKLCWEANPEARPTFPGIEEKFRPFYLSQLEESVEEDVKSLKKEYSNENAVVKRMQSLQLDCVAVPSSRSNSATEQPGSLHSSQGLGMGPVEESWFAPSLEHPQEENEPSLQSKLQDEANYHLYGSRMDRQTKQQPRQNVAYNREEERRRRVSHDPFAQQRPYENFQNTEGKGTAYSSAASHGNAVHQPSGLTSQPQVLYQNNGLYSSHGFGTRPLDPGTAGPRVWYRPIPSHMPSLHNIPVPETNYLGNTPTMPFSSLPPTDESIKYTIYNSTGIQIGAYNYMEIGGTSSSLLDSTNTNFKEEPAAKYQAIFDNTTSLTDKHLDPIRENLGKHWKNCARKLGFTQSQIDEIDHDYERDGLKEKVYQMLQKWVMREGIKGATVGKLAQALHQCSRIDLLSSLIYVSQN
Method: as §1, §2

RIPK2 = molecular target: T3, RIPK2 (Homo sapiens, UniProt O43353); conditions: ATP at Km; 30-minute pre-incubation; read-out: kinase inhibition in terms of IC50, RIPK2
T3 construct: purchased Nanosyn
Method: as §1, §2

PAK1 = molecular target: T4, PAK1 (Homo sapiens, UniProt Q13153); conditions: ATP at Km; 30-minute pre-incubation; read-out: kinase inhibition in terms of IC50, PAK1
T4 construct: Nanosyn (contract laboratory that ran the panel)
Method: as §1, §2

SYK = molecular target: T5, SYK (Homo sapiens, UniProt P43405); conditions: ATP at Km; 30-minute pre-incubation; read-out: kinase inhibition in terms of IC50, SYK
T5 construct: purchased Nanosyn
Method: as §1, §2

WEE1 = molecular target: T6, WEE1 (Homo sapiens, UniProt P30291); conditions: ATP at Km; 30-minute pre-incubation; read-out: kinase inhibition in terms of IC50, WEE1
T6 construct: purchased Nanosyn
Method: as §1, §2

TAK1-TAB1 = molecular target: T7, TAK1-TAB1 (Homo sapiens, UniProt O43318); conditions: ATP at Km; 30-minute pre-incubation; read-out: kinase inhibition in terms of IC50, TAK1-TAB1
T7 construct: purchased Nanosyn
T7 sequence (O43318 with tags, fused parts or gaps limits assumed): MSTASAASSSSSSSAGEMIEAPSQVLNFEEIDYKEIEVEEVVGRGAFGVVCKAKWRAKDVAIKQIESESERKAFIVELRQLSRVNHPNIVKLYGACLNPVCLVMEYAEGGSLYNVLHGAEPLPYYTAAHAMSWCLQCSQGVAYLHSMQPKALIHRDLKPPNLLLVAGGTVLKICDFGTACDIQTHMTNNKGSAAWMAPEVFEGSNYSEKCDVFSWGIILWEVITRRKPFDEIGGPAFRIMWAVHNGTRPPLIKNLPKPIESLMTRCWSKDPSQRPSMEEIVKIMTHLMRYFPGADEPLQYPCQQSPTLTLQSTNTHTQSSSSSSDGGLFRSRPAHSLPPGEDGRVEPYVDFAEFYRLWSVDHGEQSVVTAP
Method: as §1, §2

TYRO3 = molecular target: T8, TYRO3 (Homo sapiens, UniProt Q06418); conditions: ATP at Km; 30-minute pre-incubation; read-out: kinase inhibition in terms of IC50, TYRO3
T8 construct: purchased Nanosyn
T8 sequence (Q06418 41-890): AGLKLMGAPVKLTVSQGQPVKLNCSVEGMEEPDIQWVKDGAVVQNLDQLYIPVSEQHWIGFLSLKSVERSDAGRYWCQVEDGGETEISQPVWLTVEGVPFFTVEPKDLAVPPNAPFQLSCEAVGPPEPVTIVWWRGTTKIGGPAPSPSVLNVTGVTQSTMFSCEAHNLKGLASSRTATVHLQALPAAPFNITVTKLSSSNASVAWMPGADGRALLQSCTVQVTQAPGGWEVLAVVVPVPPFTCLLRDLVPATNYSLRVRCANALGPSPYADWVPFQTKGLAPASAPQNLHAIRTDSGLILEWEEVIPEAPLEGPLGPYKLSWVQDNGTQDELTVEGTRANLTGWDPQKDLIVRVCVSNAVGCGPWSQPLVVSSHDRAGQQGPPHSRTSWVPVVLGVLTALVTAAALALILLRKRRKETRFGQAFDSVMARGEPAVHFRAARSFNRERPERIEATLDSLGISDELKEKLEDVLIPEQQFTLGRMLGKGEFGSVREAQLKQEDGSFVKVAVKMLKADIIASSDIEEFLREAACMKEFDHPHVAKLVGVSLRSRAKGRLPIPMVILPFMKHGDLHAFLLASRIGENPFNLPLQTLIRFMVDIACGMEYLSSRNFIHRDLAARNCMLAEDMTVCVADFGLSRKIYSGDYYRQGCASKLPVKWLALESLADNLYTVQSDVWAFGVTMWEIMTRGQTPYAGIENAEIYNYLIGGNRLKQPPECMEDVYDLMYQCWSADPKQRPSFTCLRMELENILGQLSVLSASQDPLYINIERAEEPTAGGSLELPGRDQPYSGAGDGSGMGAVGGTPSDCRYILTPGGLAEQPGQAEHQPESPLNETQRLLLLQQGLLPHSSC
Method: as §1, §2

T6 sequence (P30291 whole entry): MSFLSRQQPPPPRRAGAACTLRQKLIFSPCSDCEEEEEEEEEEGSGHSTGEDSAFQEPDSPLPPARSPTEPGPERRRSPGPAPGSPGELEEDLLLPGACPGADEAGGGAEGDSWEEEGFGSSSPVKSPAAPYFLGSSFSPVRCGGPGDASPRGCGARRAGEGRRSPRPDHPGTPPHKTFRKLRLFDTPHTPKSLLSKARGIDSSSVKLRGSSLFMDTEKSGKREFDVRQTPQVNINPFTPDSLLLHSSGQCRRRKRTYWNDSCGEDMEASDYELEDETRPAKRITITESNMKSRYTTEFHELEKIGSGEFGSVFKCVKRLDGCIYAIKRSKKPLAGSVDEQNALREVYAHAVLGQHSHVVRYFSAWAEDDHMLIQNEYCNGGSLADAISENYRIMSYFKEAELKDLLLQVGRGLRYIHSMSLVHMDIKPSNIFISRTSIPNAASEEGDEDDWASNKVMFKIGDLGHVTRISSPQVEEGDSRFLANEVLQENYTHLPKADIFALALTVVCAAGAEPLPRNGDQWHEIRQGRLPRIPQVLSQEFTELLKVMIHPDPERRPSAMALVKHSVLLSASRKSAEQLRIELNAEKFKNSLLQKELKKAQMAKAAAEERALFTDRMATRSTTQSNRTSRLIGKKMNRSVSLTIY
T3 sequence (O43353 whole entry): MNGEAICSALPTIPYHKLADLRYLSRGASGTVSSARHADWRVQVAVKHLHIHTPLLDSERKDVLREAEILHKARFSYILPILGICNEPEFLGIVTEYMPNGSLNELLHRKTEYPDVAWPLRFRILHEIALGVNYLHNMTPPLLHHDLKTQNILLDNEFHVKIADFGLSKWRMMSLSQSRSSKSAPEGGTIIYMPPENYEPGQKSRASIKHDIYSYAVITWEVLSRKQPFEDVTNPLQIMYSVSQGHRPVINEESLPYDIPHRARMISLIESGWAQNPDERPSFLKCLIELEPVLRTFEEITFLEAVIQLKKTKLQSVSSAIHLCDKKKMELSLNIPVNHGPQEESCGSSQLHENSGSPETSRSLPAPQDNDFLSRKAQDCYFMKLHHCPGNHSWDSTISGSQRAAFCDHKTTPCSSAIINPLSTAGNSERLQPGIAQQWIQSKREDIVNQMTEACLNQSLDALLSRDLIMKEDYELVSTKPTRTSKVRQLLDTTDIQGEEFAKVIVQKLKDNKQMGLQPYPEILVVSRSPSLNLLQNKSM
T4 sequence (Q13153 whole entry): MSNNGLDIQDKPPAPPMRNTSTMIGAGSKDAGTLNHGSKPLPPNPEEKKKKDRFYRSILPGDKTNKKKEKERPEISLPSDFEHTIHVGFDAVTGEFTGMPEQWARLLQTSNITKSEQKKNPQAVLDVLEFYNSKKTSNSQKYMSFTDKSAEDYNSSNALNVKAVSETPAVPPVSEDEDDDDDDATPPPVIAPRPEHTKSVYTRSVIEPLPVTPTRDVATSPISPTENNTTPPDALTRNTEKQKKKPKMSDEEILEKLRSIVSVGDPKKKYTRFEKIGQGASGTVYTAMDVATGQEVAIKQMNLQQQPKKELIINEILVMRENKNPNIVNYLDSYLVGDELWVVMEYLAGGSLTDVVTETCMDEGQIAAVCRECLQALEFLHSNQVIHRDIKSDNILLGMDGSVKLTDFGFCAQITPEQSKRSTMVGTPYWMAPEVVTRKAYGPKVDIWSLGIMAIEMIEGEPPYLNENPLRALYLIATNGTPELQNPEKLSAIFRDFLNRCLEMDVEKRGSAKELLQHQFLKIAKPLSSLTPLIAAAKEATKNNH

O=C(Nc1cccc(NC(=O)c2ccn(-c3ccc(F)cc3)n2)c1)c1cccc(-c2ccn[nH]2)n1 [Ex84, N-(3-(1-(4-fluorophenyl)-1H-pyrazole-3-carboxamido)phenyl)-6-(1H-pyrazol-5-yl)picolinamide]
IC50 (PLK4): ≥ 10 µM

Cn1cnc2ccc(Oc3ccc(F)c(NC(=O)c4ccn(-c5ccc(F)cc5)n4)c3)cc2c1=O [Ex80, N-(2-fluoro-5-((3-methyl-4-oxo-3,4-dihydroquinazolin-6-yl)oxy)phenyl)-1-(4-fluorophenyl)-1H-pyrazole-3-carboxamide]
IC50 (RIPK1): ≥ 10 µM
IC50 (RIPK2): ≥ 10 µM

CNc1ncc2cc(-c3cc(NC(=O)c4ccn(-c5ccc(F)cc5)n4)ccc3C)c(=O)n(C)c2n1 [Ex74, 1-(4-fluorophenyl)-N-(4-methyl-3-(8-methyl-2-(methylamino)-7-oxo-7,8-dihydropyrido[2,3-d]pyrimidin-6-yl)phenyl)-1H-pyrazole-3-carboxamide]
IC50 (PAK1): ≥ 10 µM
IC50 (SYK): 1 to 10 µM
IC50 (WEE1): ≥ 10 µM

Cc1ccc(NC(=O)c2ccn(-c3ccc(F)cc3)n2)cc1Oc1ccnc2[nH]ccc12 [Ex83, N-(3-((1H-pyrrolo[2,3-b]pyridin-4-yl)oxy)-4-methylphenyl)-1-(4-fluorophenyl)-1H-pyrazole-3-carboxamide]
IC50 (TAK1-TAB1): ≥ 10 µM

Nc1ncnc2scc(C#Cc3cccc(NC(=O)c4ccn(-c5ccc(F)cc5)n4)c3)c12 [Ex81, N-(3-((4-aminothieno[2,3-d]pyrimidin-5-yl)ethynyl)phenyl)-1-(4-fluorophenyl)-1H-pyrazole-3-carboxamide]
IC50 (SYK): 1 to 10 µM

CS(=O)(=O)c1cc(C(=O)Nc2cc(Br)c(F)c(C(=O)c3c[nH]c4ncc(Cl)cc34)c2F)nn1-c1ccc(F)cc1 [Ex70, N-(5-bromo-3-(5-chloro-1H-pyrrolo[2,3-b]pyridine-3-carbonyl)-2,4-difluorophenyl)-1-(4-fluorophenyl)-5-(methylsulfonyl)-1H-pyrazole-3-carboxamide]
IC50 (WEE1): ≥ 10 µM

CNc1ncc2c(C)c(-c3cc(NC(=O)c4ccn(-c5ccc(F)cc5)n4)ccc3Cl)c(=O)n(C)c2n1 [Ex69, N-(4-chloro-3-(5,8-dimethyl-2-(methylamino)-7-oxo-7,8-dihydropyrido[2,3-d]pyrimidin-6-yl)phenyl)-1-(4-fluorophenyl)-1H-pyrazole-3-carboxamide]
IC50 (WEE1): ≥ 10 µM

COc1cc2nccc(Oc3ccc(NC(=O)c4cc(SC)n(-c5ccc(F)cc5)n4)c(F)c3)c2cc1OC [Ex77, N-(4-((6,7-dimethoxyquinolin-4-yl)oxy)-2-fluorophenyl)-1-(4-fluorophenyl)-5-(methylthio)-1H-pyrazole-3-carboxamide]
IC50 (SYK): ≥ 10 µM
IC50 (TYRO3): < 0.5 µM

Cc1ccc(NC(=O)c2ccn(-c3ccc(F)cc3)n2)cc1C#Cc1cnc2cccnn12 [Ex79, 1-(4-fluorophenyl)-N-(3-(imidazo[1,2-b]pyridazin-3-ylethynyl)-4-methylphenyl)-1H-pyrazole-3-carboxamide]
IC50 (RIPK1): < 0.5 µM
IC50 (RIPK2): < 0.5 µM

CC(=O)Nc1nc(C)c(-c2ccnc(Nc3cc(NC(=O)c4ccn(-c5ccc(F)cc5)n4)ccc3C)n2)s1 [Ex86, N-(3-((4-(2-acetamido-4-methylthiazol-5-yl)pyrimidin-2-yl)amino)-4-methylphenyl)-1-(4-fluorophenyl)-1H-pyrazole-3-carboxamide]
IC50 (PLK4): < 0.5 µM

CNc1ncc2cc(-c3c(Cl)ccc(NC(=O)c4ccn(-c5ccc(F)cc5)n4)c3Cl)c(=O)n(C)c2n1 [Ex82, N-(2,4-dichloro-3-(8-methyl-2-(methylamino)-7-oxo-7,8-dihydropyrido[2,3-d]pyrimidin-6-yl)phenyl)-1-(4-fluorophenyl)-1H-pyrazole-3-carboxamide]
IC50 (WEE1): ≥ 10 µM

COc1cc2nccc(Oc3ccc(NC(=O)c4ccn(-c5ccc(F)cc5)n4)c(F)c3)c2cc1OC [Ex78, N-(4-((6,7-dimethoxyquinolin-4-yl)oxy)-2-fluorophenyl)-1-(4-fluorophenyl)-1H-pyrazole-3-carboxamide]
IC50 (SYK): 1 to 10 µM
IC50 (TYRO3): < 0.5 µM
